Test results reported in the kinase profiling compilation of Christmann-Franck et al. (2016).

Assays:
Assay in all cases: KINOMEscan competition binding
Conditions in all cases: compound 10.0 µM
[1] = molecular target: NTRK1 (human) (UniProt P04629)
[2] = molecular target: CSNK1D (human) (UniProt P48730)
[3] = molecular target: RIPK4 (human) (UniProt P57078)
[4] = molecular target: MAP3K4 (human) (UniProt Q9Y6R4)
[5] = molecular target: IRAK3 (human) (UniProt Q9Y616)
[6] = molecular target: CDC42BPB (human) (UniProt Q9Y5S2)
[7] = molecular target: DDR1 (human) (UniProt Q08345)
[8] = molecular target: FGFR4 (human) (UniProt P22455)
[9] = molecular target: PAK4 (human) (UniProt O96013)
[10] = molecular target: SRPK3 (human) (UniProt Q9UPE1)
[11] = molecular target: MARK2 (human) (UniProt Q7KZI7)
[12] = molecular target: DCLK1 (human) (UniProt O15075)
[13] = molecular target: EPHB3 (human) (UniProt P54753)
[14] = molecular target: BMPR1A (human) (UniProt P36894)
[15] = molecular target: MLTK (human) (UniProt Q9NYL2)
[16] = molecular target: PHKG2 (human) (UniProt P15735)
[17] = molecular target: ACVR2A (human) (UniProt P27037)
[18] = molecular target: AKT1 (human) (UniProt P31749)
[19] = molecular target: CDK7 (human) (UniProt P50613)
[20] = molecular target: PLK2 (human) (UniProt Q9NYY3)
[21] = molecular target: MAP2K1 (human) (UniProt Q02750)
[22] = molecular target: CAMKK2 (human) (UniProt Q96RR4)
[23] = molecular target: RPS6KA5 KD1 (human) (UniProt O75582)
[24] = molecular target: PAK6 (human) (UniProt Q9NQU5)
[25] = molecular target: MARK1 (human) (UniProt Q9P0L2)
[26] = molecular target: STK4 (human) (UniProt Q13043)
[27] = molecular target: PRKG2 (human) (UniProt Q13237)
[28] = molecular target: CDK15 (human) (UniProt Q96Q40)
[29] = molecular target: PRKX (human) (UniProt P51817)
[30] = molecular target: PRKACA (human) (UniProt P17612)
[31] = molecular target: MAP3K12 (human) (UniProt Q12852)
[32] = molecular target: TLK1 (human) (UniProt Q9UKI8)
[33] = tested on: MET (human), P08581 [M1250T]
[34] = molecular target: IRAK4 (human) (UniProt Q9NWZ3)
[35] = molecular target: ERBB4 (human) (UniProt Q15303)
[36] = molecular target: HIPK3 (human) (UniProt Q9H422)
[37] = molecular target: ACVR1B (human) (UniProt P36896)
[38] = molecular target: ULK2 (human) (UniProt Q8IYT8)
[39] = molecular target: ERN1 (human) (UniProt O75460)
[40] = molecular target: PRKCQ (human) (UniProt Q04759)

Sequence of DCLK1 (human) (O15075 whole entry, looked up): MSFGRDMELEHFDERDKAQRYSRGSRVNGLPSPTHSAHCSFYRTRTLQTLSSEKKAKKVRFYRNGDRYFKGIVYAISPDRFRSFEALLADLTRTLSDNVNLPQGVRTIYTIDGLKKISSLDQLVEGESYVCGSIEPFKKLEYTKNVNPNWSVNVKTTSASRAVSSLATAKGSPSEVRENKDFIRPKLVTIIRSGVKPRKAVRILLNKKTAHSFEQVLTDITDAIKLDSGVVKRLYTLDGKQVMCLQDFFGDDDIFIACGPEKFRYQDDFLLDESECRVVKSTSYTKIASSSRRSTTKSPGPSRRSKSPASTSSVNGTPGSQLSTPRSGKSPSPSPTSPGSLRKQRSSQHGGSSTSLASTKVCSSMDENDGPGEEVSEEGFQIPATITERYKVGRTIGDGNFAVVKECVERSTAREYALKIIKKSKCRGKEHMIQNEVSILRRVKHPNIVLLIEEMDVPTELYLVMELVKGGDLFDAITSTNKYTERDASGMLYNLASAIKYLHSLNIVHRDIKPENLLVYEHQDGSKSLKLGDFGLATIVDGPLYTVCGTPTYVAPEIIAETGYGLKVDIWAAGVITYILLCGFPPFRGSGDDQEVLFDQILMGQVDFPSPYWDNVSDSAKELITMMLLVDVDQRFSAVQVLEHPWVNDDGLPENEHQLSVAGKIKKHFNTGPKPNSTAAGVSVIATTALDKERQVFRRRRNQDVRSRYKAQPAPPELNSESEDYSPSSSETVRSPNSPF
Sequence of NTRK1 (human) (P04629 whole entry, looked up): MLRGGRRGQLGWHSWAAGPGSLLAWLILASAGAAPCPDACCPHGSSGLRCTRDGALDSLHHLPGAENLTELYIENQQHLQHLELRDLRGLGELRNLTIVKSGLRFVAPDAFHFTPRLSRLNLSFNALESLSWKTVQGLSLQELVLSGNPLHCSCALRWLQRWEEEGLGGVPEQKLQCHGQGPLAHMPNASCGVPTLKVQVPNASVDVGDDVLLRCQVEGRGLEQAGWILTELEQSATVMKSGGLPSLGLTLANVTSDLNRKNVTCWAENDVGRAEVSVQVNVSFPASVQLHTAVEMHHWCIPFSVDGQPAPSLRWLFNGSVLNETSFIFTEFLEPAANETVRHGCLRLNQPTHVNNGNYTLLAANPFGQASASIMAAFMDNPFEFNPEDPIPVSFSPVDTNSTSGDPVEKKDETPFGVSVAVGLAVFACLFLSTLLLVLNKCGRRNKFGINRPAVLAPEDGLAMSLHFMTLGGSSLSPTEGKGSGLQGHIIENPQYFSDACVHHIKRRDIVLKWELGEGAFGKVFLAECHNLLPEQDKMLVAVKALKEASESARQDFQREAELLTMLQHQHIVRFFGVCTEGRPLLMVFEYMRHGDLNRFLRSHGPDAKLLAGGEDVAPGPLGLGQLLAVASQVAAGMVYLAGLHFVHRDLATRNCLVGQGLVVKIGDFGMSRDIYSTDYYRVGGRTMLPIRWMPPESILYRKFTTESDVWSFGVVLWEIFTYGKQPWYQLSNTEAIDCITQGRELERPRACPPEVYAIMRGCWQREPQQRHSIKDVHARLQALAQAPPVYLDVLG
Sequence of PAK4 (human) (O96013 whole entry, looked up): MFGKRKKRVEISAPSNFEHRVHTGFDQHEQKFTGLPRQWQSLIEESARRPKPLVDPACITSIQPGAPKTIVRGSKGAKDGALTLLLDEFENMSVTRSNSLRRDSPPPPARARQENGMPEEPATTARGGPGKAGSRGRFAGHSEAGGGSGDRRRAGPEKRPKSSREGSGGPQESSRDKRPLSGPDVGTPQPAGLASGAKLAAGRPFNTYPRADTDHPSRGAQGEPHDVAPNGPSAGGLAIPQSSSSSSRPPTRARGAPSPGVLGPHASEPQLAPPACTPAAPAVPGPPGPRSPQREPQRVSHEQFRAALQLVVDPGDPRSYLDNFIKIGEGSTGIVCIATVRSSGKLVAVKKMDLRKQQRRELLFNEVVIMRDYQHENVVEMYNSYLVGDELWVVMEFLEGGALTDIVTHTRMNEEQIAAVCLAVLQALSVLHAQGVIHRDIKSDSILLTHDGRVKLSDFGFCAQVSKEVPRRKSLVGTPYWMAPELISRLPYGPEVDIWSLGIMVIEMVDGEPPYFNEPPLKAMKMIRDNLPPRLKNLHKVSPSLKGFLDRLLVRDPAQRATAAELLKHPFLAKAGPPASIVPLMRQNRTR
Sequence of CDK7 (human) (P50613 whole entry, looked up): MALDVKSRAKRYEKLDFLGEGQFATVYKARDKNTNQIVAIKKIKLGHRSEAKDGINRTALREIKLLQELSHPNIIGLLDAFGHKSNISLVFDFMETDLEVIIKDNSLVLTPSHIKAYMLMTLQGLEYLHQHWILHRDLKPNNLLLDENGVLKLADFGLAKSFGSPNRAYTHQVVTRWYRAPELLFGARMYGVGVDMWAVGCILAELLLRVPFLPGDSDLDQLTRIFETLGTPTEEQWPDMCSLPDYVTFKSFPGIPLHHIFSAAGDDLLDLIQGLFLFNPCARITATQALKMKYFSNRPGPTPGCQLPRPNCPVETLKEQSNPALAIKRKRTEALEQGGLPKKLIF
Sequence of PHKG2 (human) (P15735 whole entry, looked up): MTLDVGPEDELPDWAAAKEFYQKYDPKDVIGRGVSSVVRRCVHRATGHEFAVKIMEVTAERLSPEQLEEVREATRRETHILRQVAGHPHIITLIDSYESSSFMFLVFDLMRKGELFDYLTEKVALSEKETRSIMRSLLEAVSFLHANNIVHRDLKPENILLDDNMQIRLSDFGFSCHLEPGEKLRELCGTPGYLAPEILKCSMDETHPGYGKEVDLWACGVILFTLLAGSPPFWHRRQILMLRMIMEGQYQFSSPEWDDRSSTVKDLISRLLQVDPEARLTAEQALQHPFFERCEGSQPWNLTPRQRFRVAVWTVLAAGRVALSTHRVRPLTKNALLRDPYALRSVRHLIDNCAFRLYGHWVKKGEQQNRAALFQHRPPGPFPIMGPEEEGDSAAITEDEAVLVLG
Sequence of AKT1 (human) (P31749 whole entry, looked up): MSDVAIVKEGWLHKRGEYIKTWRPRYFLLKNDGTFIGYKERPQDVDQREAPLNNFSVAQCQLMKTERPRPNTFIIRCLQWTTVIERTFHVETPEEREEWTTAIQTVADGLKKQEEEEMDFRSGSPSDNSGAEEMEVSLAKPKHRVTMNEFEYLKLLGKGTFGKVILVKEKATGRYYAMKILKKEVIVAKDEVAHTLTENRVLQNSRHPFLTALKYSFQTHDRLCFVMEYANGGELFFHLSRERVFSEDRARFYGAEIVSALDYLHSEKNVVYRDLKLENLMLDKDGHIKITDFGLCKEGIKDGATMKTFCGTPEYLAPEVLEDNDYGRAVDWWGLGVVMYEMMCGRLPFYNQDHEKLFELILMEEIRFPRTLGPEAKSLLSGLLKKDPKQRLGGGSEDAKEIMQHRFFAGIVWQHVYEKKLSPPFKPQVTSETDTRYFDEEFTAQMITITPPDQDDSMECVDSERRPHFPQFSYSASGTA
Sequence of RPS6KA5 KD1 (human) (O75582 whole entry, looked up): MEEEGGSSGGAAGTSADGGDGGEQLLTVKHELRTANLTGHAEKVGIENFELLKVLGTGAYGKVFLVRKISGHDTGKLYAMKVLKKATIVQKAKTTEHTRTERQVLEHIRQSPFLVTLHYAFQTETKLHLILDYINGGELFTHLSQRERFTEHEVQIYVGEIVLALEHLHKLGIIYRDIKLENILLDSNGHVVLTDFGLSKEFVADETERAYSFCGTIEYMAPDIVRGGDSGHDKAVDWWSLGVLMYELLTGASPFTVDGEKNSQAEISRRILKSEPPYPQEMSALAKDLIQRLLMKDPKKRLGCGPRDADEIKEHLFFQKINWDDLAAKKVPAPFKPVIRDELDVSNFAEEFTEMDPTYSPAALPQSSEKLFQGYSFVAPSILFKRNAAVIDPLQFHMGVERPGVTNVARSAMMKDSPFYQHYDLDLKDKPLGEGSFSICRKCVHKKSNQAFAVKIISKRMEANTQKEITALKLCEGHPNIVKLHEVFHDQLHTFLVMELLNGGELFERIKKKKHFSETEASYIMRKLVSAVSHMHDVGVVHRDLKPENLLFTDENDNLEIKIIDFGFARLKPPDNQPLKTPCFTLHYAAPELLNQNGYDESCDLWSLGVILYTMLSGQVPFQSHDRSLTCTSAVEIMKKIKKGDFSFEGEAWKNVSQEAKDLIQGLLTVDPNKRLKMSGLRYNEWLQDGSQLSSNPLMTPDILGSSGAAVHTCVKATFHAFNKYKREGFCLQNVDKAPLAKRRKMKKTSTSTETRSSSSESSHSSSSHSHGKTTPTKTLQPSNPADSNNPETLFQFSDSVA
Sequence of STK4 (human) (Q13043 whole entry, looked up): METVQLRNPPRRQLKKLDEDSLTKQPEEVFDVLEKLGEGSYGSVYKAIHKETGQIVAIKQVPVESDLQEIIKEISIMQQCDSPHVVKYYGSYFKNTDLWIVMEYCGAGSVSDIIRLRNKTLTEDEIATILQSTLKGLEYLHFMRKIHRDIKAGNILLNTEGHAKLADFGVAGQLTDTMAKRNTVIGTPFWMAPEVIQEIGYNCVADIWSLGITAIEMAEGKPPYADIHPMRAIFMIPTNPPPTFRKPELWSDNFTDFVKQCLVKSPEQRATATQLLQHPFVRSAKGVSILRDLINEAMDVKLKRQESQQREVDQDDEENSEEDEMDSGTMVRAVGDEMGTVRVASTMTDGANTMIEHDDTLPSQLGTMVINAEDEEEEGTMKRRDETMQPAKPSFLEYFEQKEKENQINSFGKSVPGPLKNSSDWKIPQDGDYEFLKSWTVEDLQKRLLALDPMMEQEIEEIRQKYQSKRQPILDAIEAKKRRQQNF
Sequence of PRKX (human) (P51817 whole entry, looked up): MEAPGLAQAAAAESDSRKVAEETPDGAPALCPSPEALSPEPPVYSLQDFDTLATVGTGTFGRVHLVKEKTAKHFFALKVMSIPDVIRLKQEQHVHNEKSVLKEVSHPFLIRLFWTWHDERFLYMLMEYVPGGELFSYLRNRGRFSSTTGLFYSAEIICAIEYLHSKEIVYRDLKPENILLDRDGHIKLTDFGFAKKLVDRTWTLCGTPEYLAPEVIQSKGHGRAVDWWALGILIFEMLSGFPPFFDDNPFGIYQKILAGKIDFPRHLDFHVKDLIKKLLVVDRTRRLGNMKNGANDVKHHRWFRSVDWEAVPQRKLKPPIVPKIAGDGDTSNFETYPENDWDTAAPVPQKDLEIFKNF

CCc1nc(-c2cccc(C)c2)c(-c2ccnc(NC(=O)c3ccccc3)c2)s1
kinase still bound, per cent of control [1]: 100% | kinase still bound, per cent of control [2]: 2% | kinase still bound, per cent of control [3]: 90% | kinase still bound, per cent of control [4]: 85% | kinase still bound, per cent of control [5]: 84% | kinase still bound, per cent of control [6]: 63% | kinase still bound, per cent of control [7]: 2.8% | kinase still bound, per cent of control [8]: 100% | kinase still bound, per cent of control [9]: 86% | kinase still bound, per cent of control [10]: 100% | kinase still bound, per cent of control [11]: 100% | kinase still bound, per cent of control [12]: 96% | kinase still bound, per cent of control [13]: 81% | kinase still bound, per cent of control [14]: 14% | kinase still bound, per cent of control [15]: 9.4% | kinase still bound, per cent of control [16]: 76% | kinase still bound, per cent of control [17]: 70% | kinase still bound, per cent of control [18]: 100% | kinase still bound, per cent of control [19]: 100% | kinase still bound, per cent of control [20]: 100% | kinase still bound, per cent of control [21]: 86% | kinase still bound, per cent of control [22]: 100% | kinase still bound, per cent of control [23]: 100% | kinase still bound, per cent of control [24]: 98% | kinase still bound, per cent of control [25]: 100% | kinase still bound, per cent of control [26]: 74% | kinase still bound, per cent of control [27]: 100% | kinase still bound, per cent of control [28]: 95% | kinase still bound, per cent of control [29]: 100% | kinase still bound, per cent of control [30]: 85% | kinase still bound, per cent of control [31]: 100% | kinase still bound, per cent of control [32]: 82% | kinase still bound, per cent of control [33]: 100% | kinase still bound, per cent of control [34]: 100% | kinase still bound, per cent of control [35]: 2.8% | kinase still bound, per cent of control [36]: 100% | kinase still bound, per cent of control [37]: 4.6% | kinase still bound, per cent of control [38]: 100% | kinase still bound, per cent of control [39]: 100% | kinase still bound, per cent of control [40]: 100%

CCN(CCO)CCCOc1ccc2c(Nc3cc(CC(=O)Nc4cccc(F)c4)[nH]n3)ncnc2c1
kinase still bound, per cent of control [1]: 6.8% | kinase still bound, per cent of control [2]: 71% | kinase still bound, per cent of control [3]: 41% | kinase still bound, per cent of control [4]: 90% | kinase still bound, per cent of control [5]: 37% | kinase still bound, per cent of control [6]: 100% | kinase still bound, per cent of control [7]: 12% | kinase still bound, per cent of control [8]: 100% | kinase still bound, per cent of control [9]: 100% | kinase still bound, per cent of control [10]: 100% | kinase still bound, per cent of control [11]: 80% | kinase still bound, per cent of control [12]: 51% | kinase still bound, per cent of control [13]: 100% | kinase still bound, per cent of control [14]: 29% | kinase still bound, per cent of control [15]: 63% | kinase still bound, per cent of control [16]: 81% | kinase still bound, per cent of control [17]: 100% | kinase still bound, per cent of control [18]: 96% | kinase still bound, per cent of control [19]: 15% | kinase still bound, per cent of control [20]: 93% | kinase still bound, per cent of control [21]: 32% | kinase still bound, per cent of control [22]: 100% | kinase still bound, per cent of control [23]: 100% | kinase still bound, per cent of control [24]: 98% | kinase still bound, per cent of control [25]: 98% | kinase still bound, per cent of control [26]: 40% | kinase still bound, per cent of control [27]: 92% | kinase still bound, per cent of control [28]: 88% | kinase still bound, per cent of control [29]: 66% | kinase still bound, per cent of control [30]: 100% | kinase still bound, per cent of control [31]: 58% | kinase still bound, per cent of control [32]: 60% | kinase still bound, per cent of control [33]: 52% | kinase still bound, per cent of control [34]: 76% | kinase still bound, per cent of control [35]: 4% | kinase still bound, per cent of control [36]: 29% | kinase still bound, per cent of control [37]: 88% | kinase still bound, per cent of control [38]: 100% | kinase still bound, per cent of control [39]: 67% | kinase still bound, per cent of control [40]: 100%
